Consider three molecules from paper PMC3386930, “Altering APP Proteolysis: Increasing sAPPalpha Production by Targeting Dimerization of the APP Ectodomain” (PLoS ONE, 2012).

Entries after “also recorded” stand apart in the source; their conditions may differ.

Experiment [1] addresses T1, eAPP230–624 (Homo sapiens, UniProt P05067).
T1 construct: made in house
Nature of the experiment: Small-angle X-ray scattering (SAXS) of eAPP230–624 complexes. Type of experiment: binding. How it is done:
(§1) The samples were incubated on ice for 20 minutes and then concentrated to 50 µl with 10-kDa cutoff concentrators (Millipore). […] Samples of the filtrates were used for buffer subtraction.
(§2) The samples were then concentrated and purified with a Superdex S200 size-exclusion column with 20 mM Tris pH 7.4, 100 mM sodium chloride and 2 mM EDTA. Samples of the protein buffer from the size-exclusion columns were used for buffer subtraction.
(§3) Data collection and processing
(§4) Small-angle X-ray scattering data were collected using protein concentrations in the range of 0.5–3 mg/ml and an X-ray wavelength of 1.11 Å at beam line 12.3.1 (Advanced Light Source). Data were integrated with software customized for the beam line and processed with the program PRIMUS [30]. The program GNOM [31] was used to calculate the maximum dimension and the radius of gyration and to estimate the intensity of the scattering at zero angle for higher concentration samples.

Experiment [2] has as its target T1, eAPP230–624. Nature of the experiment: Intrinsic tryptophan fluorescence of eAPP230–624. Type of experiment: binding. The procedure: (§5) The excitation spectra of the intrinsic tryptophan fluorescence were recorded using either a Shimadzu RF-530PC (Shimadzu Scientific Instruments) or a Spectramax XPS spectrophotometer (Molecular Devices).
Full emission spectra were measured with the Shimadzu RF-530PC using a 3 ml quartz cuvette, a 5 nm slit width and protein concentrations between 0.2–0.6 µM. […] For these larger dilutions, control titrations with the protein alone were used to generate a scaling matrix where the scale factor was both a function of wavelength and dilution. […] A similar scaling matrix was used to correct for the effect of dilution with DMSO. […] All titrations were performed at 24°C. The oligomers were stored on ice during the experiment.
These concentrations are analogous to concentrations used to create complexes for the small angle x-ray scattering analysis. The incubated material was diluted with PBS so that the final protein concentration was 0.5 µM. The spectra were recorded with the Shimadzu […].
For experiments with the Spectromax XPS plate reader, an excitation wavelength of 295 nm was used. This excitation wavelength was chosen to minimize both the contribution of tyrosine in the protein and the background fluorescence of the 96-well plates (Costar #3915).
For the quenching experiments, the data were analyzed by constructing Stern-Volmer plots, F0/F vs. Q, where Fo is the intensity of the fluorescence at zero concentration, F is the intensity of the fluorescence, and Q is the concentration of the quenching agent. When quenching is through either a static (binding) or dynamic (collisional) mechanism this plot is linear and follows the equation: [drawing 1] (1) where Ksv is the quenching constant. When both processes are present the Stern-Volmer plot is quadratic: [drawing 2] (2) where KD is the equilibrium constant associated with dynamic quenching and Ks is the equilibrium constant associated with static quenching. All parameters were determined using PRISM (GraphPad) and the appropriate non-linear curve fitting routine.
The centroid wavelength (λc) was calculated as: [drawing 3] (3) where I(λi) is the intensity observed for the wavelength (λi). The range of wavelengths was 310–390 nm.

In the next experiment the test system is neuronal cells. To be noted: similar activity; reference not printed with this sentence, 42 for APP319–335; cited from earlier work. The text has this: A 17-amino acid peptide (APP319–335) that contains the RERMS sequence is an example of such a compound. […] The mechanism by which the RERMS peptide enhances the producti ...
Experiment [3] relates to MBP-eAPP230–624. Description: Small-angle X-ray scattering (SAXS) of MBP-eAPP230–624 complexes. In kind it is binding. To be noted: 50 µM compound, 1:12 molar ratio, PBS plus 2% DMSO. The procedure:
as §5, §1, §2, §3, §4

The target in experiment [4] is T1, eAPP230–624. Nature of the experiment: Difference absorption spectra of eAPP230–624. To be noted: 1:6 molar ratio, 8.3 µM eAPP230–624, 50 µM compound, PBS plus 2% DMSO. Type of experiment: binding.
The next experiment has as its system 7W-CHO cells. Nature of the experiment: sAPPα and sAPPβ production in 7W-CHO cells (AlphaLISA). To be noted: 1 µM compound, 24 hours, 50,000 cells per well, vs 0.01% DMSO. Type of experiment: cell-based. How it is done:
(§6) B103 rat neuroblastoma cells and 7W-CHO cells were seeded at 100,000 or 50,000 cells per well in a 96-well plate and allowed to grow for one day. The B103 rat neuroblastoma cells stably expressing human wild-type APP were a kind gift from Dr. Lennart Mucke (J. David Gladstone Institute of Neurological Disease and University of California, San Francisco). The 7W-CHO cells were a kind gift from Dr. Edward Koo (Department of Molecular Pathology, University of California, San Diego). The cell culture medium was then changed and the cells treated with 1 µM disulfiram, 1 µM sulfiram, or 0.01% DMSO (control). After 24 hours, the amount of sAPPα and sAPPβ produced in the medium was quantified using the AL231C and AL232C AlphaLISA kits from Perkin Elmer, respectively, modified using a custom biotinylated APP antibody.
A) Effect of treatment with disulfiram and sulfiram on sAPPα and Aβ production in 7W-CHO cells. 7W-CHO cells were seeded at 50,000 cells per well in a 96-well plate and allowed to grow for one day. The cell culture medium was then changed and the cells treated with 1 µM disulfiram, 1 µM sulfiram, or 0.01% DMSO (control). After 24 hours, the amount of sAPPα and sAPPβ produced in the medium was quantified using the AL231C and AL232C AlphaLISA kit from Perkin Elmer, modified using a custom biotinylated human APP antibody. B) Effect on the ratio of α to β cleavage in 7W-CHO cells, as calculated by dividing the amount of sAPPα to sAPPβ produced by the 50,000 7W-CHO cells during one day under the effect of either disulfiram, sulfiram or a DMSO control. C) Effect on the ratio of α to β cleavage in B103 cells. B103 neuroblastoma cells were seeded at 100,000 cells per well in a 96-well plate and allowed to grow for one day. The cell culture medium was then changed and the cells treated with 1 µM disulfiram, 1 µM sulfiram, or 0.01% DMSO (Control). After 24 hours, the amount of sAPPα and sAPPβ produced in the medium was quantified using the same modified AL231C and AL232C AlphaLISA kit from Perkin Elmer. The ratio of α to β cleavage was calculated by dividing the amount of sAPPα to sAPPβ produced by the 100,000 B103 cells during one day under the effect of the disulfiram, sulfiram or DMSO control.
In general terms: In Alpha technology, singlet oxygen from a donor bead excites a nearby acceptor bead.

Experiment [5] deals with B103 rat neuroblastoma cells stably expressing human wild-type APP. Description: sAPPα and sAPPβ production in B103 cells (AlphaLISA). In kind it is cell-based. To be noted: 1 µM compound, 24 hours, 100,000 cells per well, vs 0.01% DMSO. How it is done: as §6
A) Effect of treatment with disulfiram and sulfiram on sAPPα and Aβ production in 7W-CHO cells. […] After 24 hours, the amount of sAPPα and sAPPβ produced in the medium was quantified using the AL231C and AL232C AlphaLISA kit from Perkin Elmer, modified using a custom biotinylated human APP antibody. B) Effect on the ratio of α to β cleavage in 7W-CHO cells, as calculated by dividing the amount of sAPPα to sAPPβ produced by the 50,000 7W-CHO cells during one day under the effect of either disulfiram, sulfiram or a DMSO control. […]

In experiment [6] the test system is MBP-eAPP230–624. Nature of the experiment: ADAM10 cleavage of MBP-eAPP230–624 in vitro (sAPPα AlphaLISA). In kind it is biochemical. To be noted: 1 uM disulfiram 15 minutes, then ADAM10 60 minutes. The procedure: Then, ADAM10 was added for 60 minutes. Time points were taken every 20 minutes.
For another experiment, the system named is APP. To be noted: cited from earlier work. The text has this:
These changes in conformation may be important in setting the balance between α-cleavage and β-cleavage of APP because the relative rates of these cleavages are known to be affected by interactions between APP and a number of proteins, both at the cell surface and during recycling of APP [19], [20]. Altering the balance of these two cleavages to favor α-cleavage is of potential therapeutic benefit for Alzheimer's disease since it would reduce Aβ production and enhance sAPPα production, without inhibition of the beta and gamma secretases. A precedent exists for this effect in that an increa ...

The mark [7] stands for this setting: 0.64 µM eAPP230–624, RERMS 0–270 µM.

T1 sequence (P05067 230-624 isoform P05067-4): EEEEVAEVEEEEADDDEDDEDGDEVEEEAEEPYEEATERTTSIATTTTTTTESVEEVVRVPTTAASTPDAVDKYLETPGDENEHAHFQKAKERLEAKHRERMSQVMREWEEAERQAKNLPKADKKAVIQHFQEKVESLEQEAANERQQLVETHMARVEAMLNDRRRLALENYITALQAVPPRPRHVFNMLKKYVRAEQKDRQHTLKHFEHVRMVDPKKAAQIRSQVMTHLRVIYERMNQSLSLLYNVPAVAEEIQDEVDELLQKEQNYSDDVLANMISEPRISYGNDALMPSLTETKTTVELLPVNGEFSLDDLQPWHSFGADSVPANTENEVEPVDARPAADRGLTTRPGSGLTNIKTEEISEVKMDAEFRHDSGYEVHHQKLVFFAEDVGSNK

Take “RERMS [The RERMS peptide itself (APP 328–332)]”: the “SAXS form of eAPP230–624 complex (in words)” value on eAPP230–624 [1] (SAXS of complex) is “dimer with a significantly smaller maximum dimension and radius of gyration than the native dimer”. Further, at eAPP230–624 [1] (SAXS relative mass, MWseq 45-kDa for eAPP230–624, max. error ±0.2, monomer around 1.3, protein alone 2.0), the MWcalc/MWseq was 1.8. The Dmax at eAPP230–624 [1] (SAXS, maximum dimension, GNOM, max. estimated error ±10 Å, eAPP230–624 with peptide) was 130 Å. Also, the Rg on eAPP230–624 [1] (SAXS, radius of gyration, GNOM, max. estimated error ±2 Å, eAPP230–624 with peptide) is 39 Å. In addition, at eAPP230–624 [2] (setting [7]), the “red-shift in the centroid wavelength” value is recorded as 1 nm and the “red-shift in the peak position” value is reported as “approximately 2 nm”. Further, the “effect on intensity of intrinsic fluorescence (in words)” value at eAPP230–624 [2] (0.64 µM eAPP230–624, RERMS 0–270 µM (1:0–1:420)) was “quenches the intensity of the intrinsic fluorescence”. Moreover, the “fold reduced potency vs APP319–335” value with neuronal cells is recorded as 10 -fold.
For the molecule `CCN(CC)C(=S)SSC(=S)N(CC)CC` [Disulfiram], the “effect on monomer-dimer equilibrium / dimerization of MBP-eAPP230–624 (in words)” value in the experiment on MBP-eAPP230–624 [3] was “inhibits dimerization of MBP-eAPP230–624”; with MBP-eAPP230–624 [3] (listed as disulfiram) it was “significantly affected the monomer-dimer equilibrium of MBP-eAPP230–624 in favor of the monomer; also recorded: mixture of monomer and dimer”. Further, the “fluorescence peak wavelength (shifted from 344 nm)” value on eAPP230–624 [2] (0.64 µM eAPP230–624, disulfiram 0–130 µM) worked out at 357 nm. In addition, the “quenching of intrinsic fluorescence (in words)” value at eAPP230–624 [2] (0.64 µM eAPP230–624, disulfiram 0–130 µM, sulfiram 0–320 µM, Shimadzu RF-530PC) is given as “significantly quenched the intrinsic fluorescence”. Also, on eAPP230–624 [2] (0.64 µM eAPP230–624, disulfiram vs sulfiram), the “Stern-Volmer slope relative to sulfiram” value was found to be 1.6 times. The “relative binding affinity for eAPP230–624 (in words)” value at eAPP230–624 [2] (inferred from Stern-Volmer slopes, disulfiram vs sulfiram) is recorded as “higher binding affinity for eAPP230–624 than sulfiram”. For the same molecule, on eAPP230–624 [2] (intrinsic fluorescence, confirmed with SAXS), the “effect on dimerization of the ectodomain fragment (in words)” value is on record as “inhibit dimerization of the ectodomain fragment”. Moreover, the “change in extinction coefficient” value at eAPP230–624 [4] is given as “significant drop in the extinction coefficient”. Also, the “sAPPα production / α-cleavage of APP (in words)” value in the experiment with 7W-CHO cells was “increase sAPPα production”; with 7W-CHO cells (listed as disulfiram), “significantly enhance the production of sAPPα; also recorded: enhance α-cleavage significantly”; in [5], “significantly enhance the production of sAPPα; also recorded: enhance α-cleavage significantly”. Moreover, the “accessibility of the α-cleavage site to ADAM10 cleavage (in words)” value in the experiment with MBP-eAPP230–624 [6] was “increase the accessibility of the α-cleavage site near lysine 612 to ADAM10 cleavage”.
Turning to “sAPPα: product of α-cleavage of APP; contains almost the entire ectodomain”, in the experiment with APP, the “inhibition of APP dimerization and cell survival (in words)” value is “inhibit APP dimerization and increase cell survival”.
